This note sets out measurements from patent US8080580B2, “Dioxa-bicyclo[3.2.1]octane-2,3,4-triol derivatives” (Pfizer Inc., priority 2008, dated 2011).

A short description of data set [1]: Pharmacokinetic testing in rats (IV or PO). It counts as in vivo. The following applies: rat. How it is done:
Examples 1A, 2A, 4A, 12A, and 14A were tested in rats to assess pharmacokinetic parameters including maximum concentration (Cmax), area under the plasma concentration time curve (AUC), clearance (CL), steady state volume of distribution (Vss), half life (t1/2), and bioavailability (F). Male Sprague Dawley rats (˜300 g) were used. Rats received compound by intravenous (IV) or oral gavage (PO) administration and the doses tested including vehicle to formulate dosing solutions are listed in Table 5.
Following IV or PO administration, 0.2 mL blood was sampled from the jugular vein at various timepoints (Table 5). Twenty microL aliquots of plasma samples and standards were subjected to protein precipitation with acetonitrile containing an internal standard. Samples were vortexed and centrifuged to obtain supernatant which was analyzed by LC-MS/MS. Analyst (Version 1.4.1) was used to measure peak areas and peak area ratios of analyte to internal standard were calculated. LC-MS/MS conditions are as follows: Mass Spectrometer+Source Type was Sciex API 4000−Turbo Spray; HPLC pump was Shimadzu; Autosampler was CTC PAL Autosampler; Injection volume was 3.0 to 10 microL; A gradient was used with mobile phase A: 10 mM ammonium acetate and 1% Isopropyl alcohol in water; B: Acetonitrile; Flowrate 0.300 mL per minute (Column 2.0×30 mm 5 microm LUNA C18 column (phenomenex)). Detection mode was negative.
A calibration curve was constructed from the peak area ratios of the standards to the internal standard by applying a weighted linear (1/x or 1/x2) regression. The dynamic range of the standard curve was 5.00 ng/mL to 5000 ng/mL.
Pharmacokinetic parameters were determined from individual animal data using non-compartmental analysis in Watson (version 7.2). Concentrations below the limit of quantitation (BLQ) were recorded as 0 ng/mL for use in calculations.
The following calculations were used: AUC(0−τ)=Determined using the linear trapezoidal method AUC(0−□)=AUC(0−τ) plus extrapolated area determined by dividing plasma concentration at τ by the slope of the terminal log-linear phase CL=Dose/AUC(0−∞) Vdss=CL×MRT Cmax=Recorded directly from plasma concentration time curve Tmax=Recorded directly from plasma concentration time curve t½=ln(0.5)/slope of the terminal log-linear phase F %=AUC(0−∞)PO per dose/AUC(0−∞)IV per dose C(0)=Extrapolated by linear regression from the apparent distribution phase following IV administration MRT=AUMC(AUC(0−∞)/AUC(0−∞)

The next data set addresses T1, hSGLT1 (Homo sapiens, UniProt P13866).
T1 sequence (P13866 1-664): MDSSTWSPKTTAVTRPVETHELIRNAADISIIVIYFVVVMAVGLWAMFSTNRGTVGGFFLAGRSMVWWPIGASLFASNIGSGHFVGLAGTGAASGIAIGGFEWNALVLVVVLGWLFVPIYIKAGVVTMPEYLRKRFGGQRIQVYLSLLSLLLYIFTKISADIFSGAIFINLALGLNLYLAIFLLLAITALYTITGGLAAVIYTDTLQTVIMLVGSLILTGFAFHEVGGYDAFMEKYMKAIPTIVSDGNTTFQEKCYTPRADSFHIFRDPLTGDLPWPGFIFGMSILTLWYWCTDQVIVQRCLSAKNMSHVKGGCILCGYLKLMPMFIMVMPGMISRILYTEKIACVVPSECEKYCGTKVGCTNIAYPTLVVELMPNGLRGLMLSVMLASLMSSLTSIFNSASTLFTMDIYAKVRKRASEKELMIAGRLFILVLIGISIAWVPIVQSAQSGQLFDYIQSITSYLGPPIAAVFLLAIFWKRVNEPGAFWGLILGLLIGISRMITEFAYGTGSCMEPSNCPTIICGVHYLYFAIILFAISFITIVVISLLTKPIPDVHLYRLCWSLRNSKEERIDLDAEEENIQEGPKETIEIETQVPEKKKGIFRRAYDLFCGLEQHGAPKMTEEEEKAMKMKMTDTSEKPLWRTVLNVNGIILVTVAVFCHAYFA
In words: SGLT1 functional assay: hSGLT1 IC50 (selectivity counter-screen to the SGLT2 AMG uptake assay). Format: cell-based. The settings on record: individual runs (Run No.). In general terms: A counterscreen serves to expose hits that act by an unwanted route or on another target.

Another data set has as its target T2, human SGLT2 (Homo sapiens, UniProt P31639).
T2 construct: expressed in transfected cells; host or cells: CHO-FlpIn (Invitrogen)
T2 sequence (P31639 1-672): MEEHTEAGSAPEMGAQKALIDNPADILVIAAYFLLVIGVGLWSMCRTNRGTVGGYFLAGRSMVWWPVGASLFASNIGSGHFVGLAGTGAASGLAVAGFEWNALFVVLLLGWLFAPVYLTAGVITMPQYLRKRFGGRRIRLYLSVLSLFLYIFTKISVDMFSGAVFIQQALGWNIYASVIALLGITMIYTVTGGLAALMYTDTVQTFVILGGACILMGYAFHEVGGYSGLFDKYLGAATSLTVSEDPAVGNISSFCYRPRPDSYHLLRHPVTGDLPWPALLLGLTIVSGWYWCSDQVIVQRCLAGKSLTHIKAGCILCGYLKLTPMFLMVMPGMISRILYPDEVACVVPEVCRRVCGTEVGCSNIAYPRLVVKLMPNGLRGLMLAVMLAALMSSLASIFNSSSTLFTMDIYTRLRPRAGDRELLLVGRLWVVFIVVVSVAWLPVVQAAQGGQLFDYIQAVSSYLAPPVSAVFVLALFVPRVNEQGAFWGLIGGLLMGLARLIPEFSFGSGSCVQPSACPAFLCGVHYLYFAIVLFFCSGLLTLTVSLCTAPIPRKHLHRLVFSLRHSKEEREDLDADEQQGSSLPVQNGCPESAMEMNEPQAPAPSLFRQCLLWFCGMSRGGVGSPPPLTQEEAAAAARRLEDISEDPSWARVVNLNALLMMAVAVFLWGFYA
In words: SGLT2 functional assay: inhibition of AMG uptake in CHO-FlpIn cells stably expressing human SGLT2. Format: cell-based. The following applies: individual runs (Run No.), read-out: hSGLT2 IC50. The text has this: The SGLT2 functional assay was designed to detect the inhibition of methyl-alpha-D glucopyranoside (AMG—a non-metabolizable form of glucose) uptake via the SGLT2 transporter. The SGLT2 transporter recovers glucose from the proximal tubules of the kidney; its inhibition results in sugar wasted in the urine. The positive control compound, Phlorizin, is a known inhibitor of glucose uptake for SGLT2 and was used for comparing the high percent effect of SGLT2 inhibition of the test compounds.
CHO-FlpIn (Invitrogen, Carlsbad, Calif.) cells stably expressing human SGLT2 (pcDNA5/FRT) were plated in Iso-TC 96 well plates (Perkin Elmer, Waltham, Mass.) at a density of 100,000 cells/well in 100 microL of growth media (1:1 F-12/DMEM media (Gibco, Carlsbad, Calif.), 10% FBS (Sigma, St. Louis Mo.), 1× Pen/Strep (Gibco, Carlsbad, Calif.), 600 microg/mL Hygromycin (Invitrogen, Carlsbad, Calif.)). Prior to treating with test compound, confluent cells were serum starved for 2 hours at 37° C. in 1:1 F-12/DMEM media, replacing with fresh F-12/DMEM media after 1 hour. […] Cell plates were then incubated for 3 hours at 37° C. for AMG uptake.

The mark [2] stands for this setting: male, Sprague Dawley, plasma, IV, 2 mg/kg.
Where [3] appears, read: male, Sprague Dawley, plasma, PO, 10 mg/kg, PEG200/0.5% MC.

Where “and” joins values, the source holds several entries; their conditions need not be identical. Equal values may be shown once.

The term AUC(0-inf) denotes the area under the concentration-time curve extrapolated to infinity. Low values mean less exposure, high ones more exposure. By half-life is commonly meant the time needed for the level to fall by half in the phase considered. In general, IC50 refers to the concentration that inhibits the measured activity by half. With `COc1ccc(Cc2cc([C@]34OC[C@](CO)(O3)[C@@H](O)[C@H](O)[C@H]4O)ccc2Cl)cc1` [Example 3A, (1S,2S,3S,4R,5S)-5-[4-chloro-3-(4-methoxy-benzyl)-phenyl]-1-hydroxymethyl-6,8-dioxa-bicyclo[3.2.1]octane-2,3,4-triol], in data set [1] (setting [2]), the AUC(0-inf) worked out at 1410 ng·h/mL and the half-life is 1.58 h. For the same compound, in data set [1] (IV, 2 mg/kg), the CL was 23.8 mL/min/kg and the Vss is given as 1.82 L/kg. For the same compound, the IC50 at hSGLT1 was 543 nM and 397 nM and 550 nM and 757 nM and 523 nM and 672 nM and 380 nM. Besides, the IC50 at human SGLT2 is 0.479 nM and 0.972 nM and 1.39 nM and 0.811 nM and 0.602 nM and 0.588 nM and 1.35 nM.
Usually Cmax stands for the maximum level reached in the sampled fluid or tissue. In data set [1] (setting [2]), `OC[C@@]12CO[C@@](c3ccc(Cl)c(Cc4ccc(OC5COC5)cc4)c3)(O1)[C@H](O)[C@@H](O)[C@@H]2O` [Example 14A, (1S,2S,3S,4R,5S)-5-{4-chloro-3-[4-(oxetan-3-yloxy)-benzyl]-phenyl}-1-hydroxymethyl-6,8-dioxa-bicyclo[3.2.1]octane-2,3,4-triol] showed an AUC(0-inf) of 1060 ng·h/mL, a clearance of 31.7 mL/min/kg and a half-life of 1.36 h. The Vd in data set [1] (male, Sprague Dawley, plasma, IV, 2 mg/kg, read-out: Vss) worked out at 1.69 L/kg. Besides, in data set [1] (setting [3]), the AUC(0-inf) is 2290 ng·h/mL, the peak level (Cmax) was 551 ng/mL and the half-life is 1.71 h. This compound gave a F in data set [1] (PO, 10 mg/kg, PEG200/0.5% MC) of 43.5%. At hSGLT1, this compound displayed an IC50 of over 10000 nM. Besides, the IC50 on human SGLT2 is 2.28 nM and 3.12 nM and 2.39 nM and 2.87 nM.
